Laboratory results published in the NIST ThermoML archive (doi:10.1016/j.tca.2011.08.002).
± gives the expanded uncertainty stated by the source.

How the values were obtained:
[1] = refractive index (Na D-line) (dimensionless); xn = mol fraction of the nth substance listed; details: 101 kPa, Liquid, Standard Abbe refractometry
[2] = xn = mol fraction of the nth substance listed; details: 101 kPa, Liquid, Vibrating tube method

C1CCC(NC2CCCCC2)CC1 [N-cyclohexylcyclohexanamine] + CC(C)(C)O
Details | mass density, 303.15 K [kg/m3] | mass density, 308.15 K [kg/m3] | mass density, 313.15 K [kg/m3] | mass density, 318.15 K [kg/m3] | mass density, 323.15 K [kg/m3] | refractive index, 303.15 K | refractive index, 308.15 K | refractive index, 313.15 K | refractive index, 318.15 K | refractive index, 323.15 K
[1], x2 = 0 | – | – | – | – | – | 1.47978 ± 0.0004 | 1.47761 ± 0.0004 | 1.47562 ± 0.0004 | 1.47347 ± 0.0004 | 1.47134 ± 0.0004
[1], x2 = 0.1 | – | – | – | – | – | 1.47584 ± 0.00039 | 1.47362 ± 0.00039 | 1.47142 ± 0.00039 | 1.46916 ± 0.00039 | 1.467 ± 0.00039
[1], x2 = 0.199 | – | – | – | – | – | 1.47107 ± 0.00039 | 1.46875 ± 0.00039 | 1.46639 ± 0.00039 | 1.4641 ± 0.00039 | 1.46188 ± 0.00039
[1], x2 = 0.289 | – | – | – | – | – | 1.46609 ± 0.00038 | 1.46373 ± 0.00038 | 1.46133 ± 0.00038 | 1.45899 ± 0.00038 | 1.45674 ± 0.00038
[1], x2 = 0.4 | – | – | – | – | – | 1.45896 ± 0.00038 | 1.4565 ± 0.00038 | 1.45403 ± 0.00038 | 1.45163 ± 0.00038 | 1.44932 ± 0.00038
[1], x2 = 0.485 | – | – | – | – | – | 1.45238 ± 0.00037 | 1.44994 ± 0.00037 | 1.44742 ± 0.00037 | 1.44498 ± 0.00037 | 1.44272 ± 0.00037
[1], x2 = 0.6 | – | – | – | – | – | 1.4423 ± 0.00037 | 1.43973 ± 0.00037 | 1.43717 ± 0.00037 | 1.43461 ± 0.00037 | 1.43215 ± 0.00037
[1], x2 = 0.698 | – | – | – | – | – | 1.43185 ± 0.00036 | 1.42927 ± 0.00036 | 1.42663 ± 0.00036 | 1.42401 ± 0.00036 | 1.42155 ± 0.00036
[1], x2 = 0.801 | – | – | – | – | – | 1.41877 ± 0.00036 | 1.41609 ± 0.00036 | 1.41336 ± 0.00036 | 1.41073 ± 0.00036 | 1.4081 ± 0.00036
[1], x2 = 0.849 | – | – | – | – | – | 1.41128 ± 0.00036 | 1.40862 ± 0.00036 | 1.40587 ± 0.00036 | 1.40316 ± 0.00036 | 1.40048 ± 0.00036
[1], x2 = 0.9 | – | – | – | – | – | 1.40275 ± 0.00036 | 1.40004 ± 0.00036 | 1.39727 ± 0.00036 | 1.39449 ± 0.00036 | 1.39193 ± 0.00036
[2], x2 = 0 | 904.144 ± 0.23 | 900.372 ± 0.23 | 896.608 ± 0.23 | 892.847 ± 0.23 | 889.089 ± 0.23 | – | – | – | – | –
[2], x2 = 0.1 | 899.362 ± 0.21 | 895.452 ± 0.21 | 891.533 ± 0.21 | 887.611 ± 0.21 | 883.684 ± 0.22 | – | – | – | – | –
[2], x2 = 0.199 | 893.462 ± 0.2 | 889.433 ± 0.2 | 885.384 ± 0.2 | 881.326 ± 0.2 | 877.25 ± 0.2 | – | – | – | – | –
[2], x2 = 0.289 | 887.197 ± 0.18 | 883.071 ± 0.18 | 878.917 ± 0.18 | 874.742 ± 0.18 | 870.544 ± 0.19 | – | – | – | – | –
[2], x2 = 0.4 | 878.023 ± 0.17 | 873.772 ± 0.17 | 869.49 ± 0.17 | 865.171 ± 0.17 | 860.821 ± 0.17 | – | – | – | – | –
[2], x2 = 0.485 | 869.715 ± 0.15 | 865.366 ± 0.16 | 860.973 ± 0.16 | 856.539 ± 0.16 | 852.063 ± 0.16 | – | – | – | – | –
[2], x2 = 0.6 | 856.549 ± 0.14 | 852.061 ± 0.15 | 847.522 ± 0.15 | 842.928 ± 0.15 | 838.281 ± 0.16 | – | – | – | – | –
[2], x2 = 0.698 | 843.066 ± 0.14 | 838.44 ± 0.14 | 833.751 ± 0.15 | 829.003 ± 0.15 | 824.196 ± 0.15 | – | – | – | – | –
[2], x2 = 0.801 | 825.644 ± 0.14 | 820.845 ± 0.14 | 815.974 ± 0.14 | 811.036 ± 0.15 | 806.029 ± 0.15 | – | – | – | – | –
[2], x2 = 0.849 | 815.948 ± 0.14 | 811.061 ± 0.15 | 806.1 ± 0.15 | 801.065 ± 0.15 | 795.955 ± 0.15 | – | – | – | – | –
[2], x2 = 0.9 | 804.266 ± 0.14 | 799.276 ± 0.15 | 794.206 ± 0.15 | 789.061 ± 0.15 | 783.837 ± 0.16 | – | – | – | – | –
